Laboratory results from patent US20160310463A1, “LIQUID STATIN FORMULATION” (priority 2009, published 2016).
Structures can show the parent of a compound that is named as a salt. Where two headings read alike, the source gives them in different places.

What was measured:
[1] = test system: children with HeFH; experiment: Dirisamer et al.: low-dose simvastatin in children with HeFH; assay type: in vivo, human
Protocol: If the range of LDL-C of 150-170 mg/dl was not reached within the first 8 weeks, the daily dosage was increased stepwise up to 20 mg. The cut-off level for LDL-C<170 mg/dl (range 150-170 mg/dl) was determined according to the high mean concentrations of LDL-C of the study population.

[2] = test system: children younger than 17 years of age with hyperlipidemia; details: mean dosage 16 mg once daily, cited from earlier work
[3] = test system: children with HeFH; details: cited from earlier work
[4] = test system: pediatric HeFH patients; details: cited from earlier work
[5] = Simvastatin solubility screening, visual observation; assay type: physicochemical; details: for Visual Appearance: 23° C.
Protocol: The study was performed by visual observation of the samples at various time points followed by chemical testing of the centrifuged supernatant. Ten vehicles chosen for the solubility screen are referenced in Table 2 below. One (1 g) of each vehicle was dispensed into an Eppendorf tube. […] Samples not visually soluble, after about 21 hours, were heated to 60° C. while being mixed for 1 hour. Samples were allowed to reach room temperature, and visual observations were recorded. All samples were centrifuged for 10 minutes at 10,000 RPM.

[6] = pH of 7.0; cited from earlier work
[7] = cited from earlier work
[8] = adults; estimate for the five statins together; cited from earlier work
[9] = test system: children and adolescents; details: cited from earlier work
[10] = test system: testicular endocrine function; details: dogs, very high doses; cited from earlier work
[11] = test system: adrenal and gonadal steroidogenesis; details: humans, up to 80 mg/day, basal conditions; cited from earlier work
[12] = test system: adrenocortical and testicular steroidogenesis; details: males age 18-50 years, long-term therapy, cited from earlier work
[13] = test system: HeFH children and adolescents; details: 5 mg and 10 mg pravastatin; cited from earlier work

CCC(C)(C)C(=O)O[C@@H]1C[C@H](C)C=C2C=C[C@@H](C)[C@@H](CC[C@@H]3C[C@H](O)CC(=O)O3)[C@@H]21 (relative stereo) [Simvastatin, butanoic acid, 2,2-dimethyl-,1,2,3,7,8,8a-hexahydro-3,7-dimethyl-8-[2-(tetrahydro-4-hydroxy-6-oxo-2H-pyran-2-yl)-ethyl]-1-naphthalenyl ester, [1S-[1α,3α,7β,8β(2S*,4S*),-8aβ]]]
higher LDL-C reduction compared with other statins tested in young HeFH patients ([1]; 5 mg and 10 mg simvastatin period): ~10%
share of the mean LDL-C reduction of the highest dose (20 mg/day) reached by the lowest dose (5 mg/day) ([1]; in vivo): more than 70%
fall of circulating LDL-C at week 104 ([2]; in 1 patient): 15-20%
fall of circulating LDL-C at week 104 ([2]; in 7 patients): 40-60%
fall of circulating LDL-C at week 104 ([2]; in 8 patients): 20-40%
patients reaching the recommended therapeutic level (LDL-C<170 mg/dl) within the first period ([3]; 5 mg simvastatin daily, nine patients started with 5 mg): four
percentage decrease in LDL-C concentration ([3]; 5 mg simvastatin period): 25%
percentage decrease in total cholesterol ([3]; 5 mg simvastatin period): 19%
patients reaching the recommended therapeutic level within the first period ([3]; 10 mg simvastatin daily, 11 patients started with 10 mg): Six
percentage decrease in LDL-C concentration ([3]; 10 mg simvastatin period): 30%
percentage decrease in total cholesterol ([3]; 10 mg simvastatin period): 26%
percentage decrease in LDL-C concentration ([3]; 20 mg simvastatin period): 36%
percentage decrease in total cholesterol ([3]; 20 mg simvastatin period): 29%
side effects that could be related to simvastatin ([3]; 5, 10 and 20 mg dosage periods): few and equally distributed among the three dosage periods
subjects with abnormal levels of routine safety parameters (CK, ALAT, GGT) ([3]; group of 20 girls and boys): three
change in total-C, LDL-C and ApoB compared with placebo ([4]; at 24 weeks): significant (P<0.001) reductions
change in HDL-C and ApoA1 ([4]; only significant relative to placebo at week 24 (P<0.05)): increased for all weeks
results from the extension at 48 weeks ([4]; simvastatin 40 mg): comparable to those observed in the base study
change in triglycerides ([4]; weeks 8, 16, and 48): Significant reductions
Visual Appearance ([5]; 2.5 mg in 1 g 5% SLS in Water, 30 Min to ~21 Hrs): Clear colorless liquid w/ air bubbles
Visual Appearance ([5]; 2.5 mg in 1 g Captex 500 P, 30 Min to ~21 Hrs): Clear colorless liquid
Visual Appearance after Application of Heat (60° C.) for 1 Hour and Cooled to Room Temperature ([5]; 2.5 mg in 1 g E. Pure Water): Hazy liquid w/ white powder and air bubbles
Visual Appearance ([5]; 2.5 mg in 1 g E. Pure Water, 30 Min to ~21 Hrs): Cloudy liquid w/ white powder
Visual Appearance after Application of Heat (60° C.) for 1 Hour and Cooled to Room Temperature ([5]; 2.5 mg in 1 g Glycerine): Slightly hazy liquid w/ some white powder
Visual Appearance ([5]; 2.5 mg in 1 g Glycerine, Initial to ~21 Hrs): Stiff clear, colorless liquid w/ white powder
Visual Appearance ([5]; 2.5 mg in 1 g Labrafil M 2125 CS, merged cell, Initial to about 2 Hrs): Yellow liquid w/ white powder
Visual Appearance ([5]; 2.5 mg in 1 g Labrasol, 30 Min to ~21 Hrs): Pale yellow liquid
Visual Appearance ([5]; 2.5 mg in 1 g PEG 400, 30 Min to ~21 Hrs): Clear colorless liquid
Visual Appearance after Application of Heat (60° C.) for 1 Hour and Cooled to Room Temperature ([5]; 2.5 mg in 1 g Polysorbate 80): Clear yellow liquid w/ some white residue
Visual Appearance ([5]; 2.5 mg in 1 g Polysorbate 80, Initial to ~21 Hrs): Yellow liquid w/ white powder
Visual Appearance ([5]; 2.5 mg in 1 g Propylene Glycol, 30 Min to ~21 Hrs): Clear colorless liquid

CC(C)c1nc(N(C)S(C)(=O)=O)nc(-c2ccc(F)cc2)c1/C=C/C(O)C[C@@H](O)CC(=O)O (stereo in doubt) [Rosuvastatin calcium, bis[(E)-7-[4-(4-fluorophenyl)-6-isopropyl-2-[methyl(methylsulfonyl)amino]pyrimidin-5-yl](3R,5S)-3,5-dihydroxyhept-6-enoic acid] calcium salt]
partition coefficient (octanol/water) [6]: 0.13
solubility ([7]; in ethanol): slightly soluble
solubility ([7]; in water and methanol): sparingly soluble

CC(C)c1c(C(=O)Nc2ccccc2)c(-c2ccccc2)c(-c2ccc(F)cc2)n1CC[C@@H](O)C[C@@H](O)CC(=O)O [Atorvastatin, (3R, 5R)-7-[2-(4-fluorophenyl)-3-phenyl-4-(phenylcarbamoyl)-5-(propan-2-yl)-1H-pyrrol-1-yl]-3,5-dihydroxyheptanoic acid]
occurrence of rhabdomyolysis [8]: 3 per 100 000 person-years

COCc1c(C(C)C)nc(C(C)C)c(/C=C/[C@@H](O)C[C@@H](O)CC(=O)O)c1-c1ccc(F)cc1 [Cerivastatin sodium]
solubility ([7]; in acetone): very slightly soluble
solubility ([7]; in water, methanol, and ethanol): soluble

CC[C@H](C)C(=O)O[C@H]1C[C@@H](C)C=C2C=C[C@H](C)[C@H](CC[C@@H]3C[C@@H](O)CC(=O)O3)[C@H]21 [Lovastatin, (1S,3R,7S,8S,8aR)-8-{2-[(2R,4R)-4-hydroxy-6-oxooxan-2-yl]ethyl}-3,7-dimethyl-1,2,3,7,8,8a-hexahydronaphthalen-1-yl (2S)-2-methylbutanoate]
occurrence of rhabdomyolysis [8]: 3 per 100 000 person-years
LDL-C reduction ([9]; 10 mg lovastatin): 21%
LDL-C reduction ([9]; 20 mg lovastatin): 24%
share of the mean LDL-C reduction of the highest dose of 40 reached by the lowest dose (10 mg/day) ([9]; in vivo): more than 50%
effect on testicular endocrine function [10]: reduction in testicular endocrine function
effect on adrenal and gonadal steroidogenesis [11]: no effect

CC[C@H](C)C(=O)O[C@H]1C[C@H](O)C=C2C=C[C@H](C)[C@H](CC[C@@H](O)C[C@@H](O)CC(=O)O)[C@H]21 [Pravastatin, (bR,dR,1S,2S,6S,8S,8aR)-1,2,6,7,8,8a-Hexahydro-b,d,6-trihydroxy-2-methyl-8-[(2S)-2-methyl-1-oxobutoxy]-1-naphthaleneheptanoic acid monosodium salt]
occurrence of rhabdomyolysis [8]: 3 per 100 000 person-years
interference with adrenal and testicular steroidogenesis ([12]; maximum stimulation): did not interfere
serum testosterone levels [12]: remained unchanged
average decrease in LDL-C concentration [13]: 23%

[R.,S.-(E)]-(±)-7-[3-(4-fluorophenyl)-1-(1-methylethyl)-1H-indol-2-yl]-3,5-dihydroxy-6-heptenoic acid, monosodium salt [Fluvastatin]
occurrence of rhabdomyolysis [8]: 3 per 100 000 person-years
